Where two headings read alike, the source gives them in different places.
Legend:
[1] = biological target: HCV NS3 protease domain genotype 3a (Hepatitis C virus genotype 3a, UniProt Q81258); assay: Ki determination, NS3 protease genotype 3a (fluorogenic depsipeptide substrate); format: biochemical; conditions: 200 pM enzyme, NS4A peptide
Outline: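 The NS3 protease domain (aa 1-181) with 20 μM NS4A peptide was used at 50 pM with 4 μM substrate (1b) or at 200 pM with 2 μM substrate (3a). Inhibitors (100 nM-5 pM) were pre-incubated 1 h at room temperature in HEPES/glycerol/DTT buffer with 10% DMSO. Steady-state rates (90-120 min) gave Ki via the Morrison equation, corrected for active enzyme and [S]/Km.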

[2] = tested on: genotype 1a (H77) stable HCV replicon in Huh-7-derived cells; assay: Stable subgenomic HCV replicon EC50, genotype 1a (Renilla luciferase); format: cell-based, hepatitis C virus; conditions: stable replicon genotype 1a, 72 h, read-out: EC50 1A RLUC
Outline: (§1)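 Compounds, three-fold diluted, were applied to Huh-7-derived cells harbouring luciferase replicons (genotype 1a H77, 1b Con1, 2a JFH-1, 4a ED43, with strain-specific adaptive mutations). Seventy-two hours later, intracellular replication was gauged by Renilla luciferase activity and EC50 derived by regression.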

[3] = biological target: HCV NS3 protease domain genotype 1b (Hepatitis C virus genotype 1b (isolate Con1), UniProt Q9WMX2, E1202G); assay: Ki determination, NS3 protease genotype 1b (fluorogenic depsipeptide substrate); format: biochemical; conditions: 50 pM enzyme, NS4A peptide
Sequence of HCV NS3 protease domain genotype 1b (Q9WMX2 1027-1208 E1202G): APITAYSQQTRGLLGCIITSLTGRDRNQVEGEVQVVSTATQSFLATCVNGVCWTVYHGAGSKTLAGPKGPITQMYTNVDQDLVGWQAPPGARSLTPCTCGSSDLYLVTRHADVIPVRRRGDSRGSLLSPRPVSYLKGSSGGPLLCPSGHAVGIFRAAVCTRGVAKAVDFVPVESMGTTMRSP
Method: Purified NS3 protease domain (amino acids 1-181) of the genotype 1b and 3a virus were generated as above.
Reactions were run at room temperature in buffer consisting of 50 mM HEPES, 40% glycerol, 0.05% Triton X-100, 10 mM DTT, and 10% DMSO. The final assay solutions contained 50 pM NS3 genotype 1 b protease or 200 pM genotype 3a protease, 20 μM NS4A peptide, and 4 μM substrate (genotype 1b) or 2 μM substrate (genotype 3a). Inhibitor concentrations varied from 100 nM to 5 pM in 3-fold dilutions, and no-inhibitor controls were included.
Compound dilutions were made in DMSO at 20× final concentration. Reaction mixtures were prepared in 96-well assay plates. A solution of enzyme and NS4A peptide in assay buffer (25 μL volume with both reagents at 4× final concentration) was mixed with 45 μL assay buffer and 5 μL of either inhibitor or DMSO, and pre-incubated at room temperature for 1 hour. The reaction was started by addition of 25 μL substrate solution at 4× final concentration. Plates were mixed vigorously for 5-10 seconds and reactions were allowed to proceed for 90 minutes, fluorescence was measured every 30 s between 90 and 120 minutes reaction time using a Tecan InfiniTe M1000 or PerkinElmer Envision multimode plate reader with an excitation wavelength of 340 nm and an emission wavelength of 490 nm.
To determine the Ki, rates were plotted as a function of inhibitor concentration, and the data were fit with equation 1 (Morrison, J. F., Biochimica et Biophysica Acta 1969, 185, 269-286) to calculate Ki^app using GraphPad Prism 5. […] Ki was calculated from Ki^app/(1+[[S]/Km]).

[4] = tested on: genotype 1a NS3/4a protease inhibitor resistant variant R155K transient HCV replicon in Huh-7-derived cells; assay: Transient-transfected HCV replicon EC50, genotype 1a R155K; format: cell-based, hepatitis C virus; conditions: 72 h
[5] = tested on: genotype 3a (S52) stable HCV replicon in Huh-7-derived cells; assay: Stable subgenomic HCV replicon EC50, genotype 3a (Renilla luciferase); format: cell-based, hepatitis C virus; conditions: 72 h, read-out: EC50 3A RLUC
[6] = tested on: genotype 1a (H77) wild type transient HCV replicon in Huh-7-derived cells; assay: Transient-transfected HCV replicon EC50, genotype 1a wild type; format: cell-based, hepatitis C virus; conditions: 72 h, transient-transfected replicon genotype 1a wild type, read-out: EC50 1A WT
[7] = tested on: genotype 1b NS3/4a protease inhibitor resistant variant D168A transient HCV replicon in Huh-7-derived cells; assay: Transient-transfected HCV replicon EC50, genotype 1b D168A; format: cell-based, hepatitis C virus; conditions: Hepatitis C virus, 72 h, read-out: EC50 1B D168A, transient-transfected replicon genotype 1b D168A resistant variant, 72 h
[8] = tested on: genotype 1b (Con1) wild type transient HCV replicon in Huh-7-derived cells; assay: Transient-transfected HCV replicon EC50, genotype 1b wild type; format: cell-based, hepatitis C virus; conditions: 72 h, transient-transfected replicon genotype 1b wild type, read-out: EC50 1B WT
[9] = tested on: genotype 2a (JFH-1) stable HCV replicon in Huh-7-derived cells; assay: Stable subgenomic HCV replicon EC50, genotype 2a (Renilla luciferase); format: cell-based, hepatitis C virus; conditions: stable replicon genotype 2a, 72 h, read-out: EC50 2A RLUC
Outline: as §1

[10] = tested on: genotype 1b (Con1) stable HCV replicon in Huh-7-derived cells; assay: Stable subgenomic HCV replicon EC50, genotype 1b (Renilla luciferase); format: cell-based, hepatitis C virus; conditions: stable replicon genotype 1b, 72 h, read-out: EC50 1B RLUC
Outline: as §1

[11] = tested on: genotype 3a (S52) wild type transient HCV replicon in Huh-7-derived cells; assay: Transient-transfected HCV replicon EC50, genotype 3a wild type; format: cell-based, hepatitis C virus; conditions: transient-transfected replicon genotype 3a wild type, 72 h, read-out: EC50 3A WT
[12] = tested on: genotype 4a (ED43) stable HCV replicon in Huh-7-derived cells; assay: Stable subgenomic HCV replicon EC50, genotype 4a (Renilla luciferase); format: cell-based, hepatitis C virus; conditions: 72 h, read-out: EC50 4A RLUC
Outline: as §1

[13] = Hepatitis C virus, read-out: EC50 1A R155K, transient-transfected replicon genotype 1a R155K resistant variant, 72 h

Sequence of HCV NS3 protease domain genotype 3a (Q81258 whole entry, looked up, the tested form may be a part): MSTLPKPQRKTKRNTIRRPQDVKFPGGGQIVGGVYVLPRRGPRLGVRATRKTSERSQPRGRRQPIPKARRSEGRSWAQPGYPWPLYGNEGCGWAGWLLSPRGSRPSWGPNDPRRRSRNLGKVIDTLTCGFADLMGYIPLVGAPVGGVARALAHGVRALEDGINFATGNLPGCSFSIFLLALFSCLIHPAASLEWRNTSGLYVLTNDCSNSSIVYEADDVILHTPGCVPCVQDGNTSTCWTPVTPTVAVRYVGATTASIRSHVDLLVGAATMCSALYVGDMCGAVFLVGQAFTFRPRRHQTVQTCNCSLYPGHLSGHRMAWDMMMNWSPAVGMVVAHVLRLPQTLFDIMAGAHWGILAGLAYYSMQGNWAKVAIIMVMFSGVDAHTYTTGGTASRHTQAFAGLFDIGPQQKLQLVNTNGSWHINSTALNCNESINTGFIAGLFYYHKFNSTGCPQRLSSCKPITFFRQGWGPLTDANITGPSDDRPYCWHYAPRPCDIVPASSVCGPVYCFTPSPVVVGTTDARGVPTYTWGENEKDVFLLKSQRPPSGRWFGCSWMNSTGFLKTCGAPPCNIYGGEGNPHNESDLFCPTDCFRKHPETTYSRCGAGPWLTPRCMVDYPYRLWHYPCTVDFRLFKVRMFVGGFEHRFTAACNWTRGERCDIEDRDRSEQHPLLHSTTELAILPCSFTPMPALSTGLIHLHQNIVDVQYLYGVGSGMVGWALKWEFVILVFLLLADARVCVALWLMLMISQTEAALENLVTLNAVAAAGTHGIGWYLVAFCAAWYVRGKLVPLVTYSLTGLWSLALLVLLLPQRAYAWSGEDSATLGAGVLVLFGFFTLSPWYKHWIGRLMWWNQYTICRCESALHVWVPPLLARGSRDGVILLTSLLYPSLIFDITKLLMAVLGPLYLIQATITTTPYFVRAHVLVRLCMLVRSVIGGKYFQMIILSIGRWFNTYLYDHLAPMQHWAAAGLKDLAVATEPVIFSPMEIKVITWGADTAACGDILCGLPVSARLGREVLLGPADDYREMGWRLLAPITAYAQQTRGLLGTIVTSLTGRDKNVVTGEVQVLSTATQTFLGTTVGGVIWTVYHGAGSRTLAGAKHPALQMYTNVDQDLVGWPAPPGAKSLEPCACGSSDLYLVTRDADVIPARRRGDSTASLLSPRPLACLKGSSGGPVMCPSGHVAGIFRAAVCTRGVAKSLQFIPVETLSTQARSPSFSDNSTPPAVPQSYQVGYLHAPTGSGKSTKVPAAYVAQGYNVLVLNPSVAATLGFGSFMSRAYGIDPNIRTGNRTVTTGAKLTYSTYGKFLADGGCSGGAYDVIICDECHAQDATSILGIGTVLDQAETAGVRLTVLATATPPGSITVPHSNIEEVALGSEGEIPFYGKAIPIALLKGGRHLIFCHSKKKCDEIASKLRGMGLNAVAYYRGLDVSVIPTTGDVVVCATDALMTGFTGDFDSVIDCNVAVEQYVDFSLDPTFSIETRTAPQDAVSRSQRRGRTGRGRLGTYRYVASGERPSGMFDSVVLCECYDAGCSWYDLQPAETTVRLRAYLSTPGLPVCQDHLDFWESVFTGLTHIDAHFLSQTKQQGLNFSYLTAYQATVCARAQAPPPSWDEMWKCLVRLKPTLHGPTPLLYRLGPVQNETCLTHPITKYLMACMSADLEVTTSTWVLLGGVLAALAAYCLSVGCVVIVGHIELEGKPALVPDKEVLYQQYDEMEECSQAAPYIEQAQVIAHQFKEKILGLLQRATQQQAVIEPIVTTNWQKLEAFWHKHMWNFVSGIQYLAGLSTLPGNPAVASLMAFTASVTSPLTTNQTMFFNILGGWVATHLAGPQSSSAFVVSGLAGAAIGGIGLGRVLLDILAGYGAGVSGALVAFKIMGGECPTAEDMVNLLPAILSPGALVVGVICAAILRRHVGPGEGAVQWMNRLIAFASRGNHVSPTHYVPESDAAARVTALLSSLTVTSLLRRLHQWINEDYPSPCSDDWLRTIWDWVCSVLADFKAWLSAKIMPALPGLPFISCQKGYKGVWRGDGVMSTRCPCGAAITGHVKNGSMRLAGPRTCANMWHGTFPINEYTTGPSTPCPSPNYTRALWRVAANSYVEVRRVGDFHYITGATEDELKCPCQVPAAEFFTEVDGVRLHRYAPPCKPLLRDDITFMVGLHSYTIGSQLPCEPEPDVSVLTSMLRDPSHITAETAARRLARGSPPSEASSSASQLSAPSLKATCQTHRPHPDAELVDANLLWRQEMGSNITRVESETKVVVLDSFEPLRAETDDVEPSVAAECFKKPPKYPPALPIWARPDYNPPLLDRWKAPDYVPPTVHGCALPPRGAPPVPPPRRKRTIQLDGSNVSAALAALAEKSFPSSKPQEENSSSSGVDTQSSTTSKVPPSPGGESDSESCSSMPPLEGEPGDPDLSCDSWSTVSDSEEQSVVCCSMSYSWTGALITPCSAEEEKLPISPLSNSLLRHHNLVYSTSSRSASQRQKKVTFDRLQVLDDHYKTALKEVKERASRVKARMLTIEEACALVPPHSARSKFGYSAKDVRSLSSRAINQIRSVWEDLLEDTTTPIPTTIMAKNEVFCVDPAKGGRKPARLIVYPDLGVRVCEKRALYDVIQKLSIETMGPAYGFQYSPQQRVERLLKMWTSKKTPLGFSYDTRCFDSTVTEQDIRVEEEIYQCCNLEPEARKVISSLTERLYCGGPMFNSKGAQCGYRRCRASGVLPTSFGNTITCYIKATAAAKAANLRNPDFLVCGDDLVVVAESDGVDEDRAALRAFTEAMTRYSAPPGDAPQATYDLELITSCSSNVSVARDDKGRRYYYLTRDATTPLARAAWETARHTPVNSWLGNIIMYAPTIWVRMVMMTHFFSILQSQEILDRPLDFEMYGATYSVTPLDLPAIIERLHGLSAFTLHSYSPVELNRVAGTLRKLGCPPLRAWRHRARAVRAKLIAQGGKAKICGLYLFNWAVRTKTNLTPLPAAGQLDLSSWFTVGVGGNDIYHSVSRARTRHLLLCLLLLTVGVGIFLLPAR

Row | Compound | Ki [1] [nM] | EC50 ([2]; Hepatitis C virus) [nM] | Ki [3] [nM] | EC50 [4, 13] [nM] | EC50 ([5]; Hepatitis C virus) [nM] | EC50 ([6]; Hepatitis C virus) [nM] | EC50 [7] [nM] | EC50 ([8]; Hepatitis C virus) [nM] | EC50 ([9]; Hepatitis C virus) [nM] | EC50 ([10]; Hepatitis C virus) [nM] | EC50 ([11]; Hepatitis C virus) [nM] | EC50 ([12]; Hepatitis C virus) [nM] | also measured
1 | CC[C@@H]1[C@@H]2CN(C(=O)[C@H](C(C)(C)C)NC(=O)O[C@@H]3C[C@@H]4C[C@@H]4[C@H]3CCCCC(F)(F)c3nc4ccc(OC)cc4nc3O2)[C@@H]1C(=O)N[C@]1(C(=O)NS(=O)(=O)C2CC2)C[C@H]1C(F)F [Example 59, (1aS,2aR,6S,9S,10 S,11R,23aR,23bS)-6-tert-butyl-N-[(1R,2R)-1-[(cyclopropylsulfonyl)carbamoyl]-2-(difluoromethyl)cyclopropyl]-10-ethyl-19,19-difluoro-15-methoxy-4,7-dioxo-1a,2,2a,4,5,6,7,10,11,19,20,21,22,23,23a,23b-hexadecahydro-1H,9H-8,11-methanocyclopropa[4′,5′]cyclopenta[1′,2′:18,19][1,10,3,6]dioxadiazacyclononadecino[11,12-b]quinoxaline-9-carboxamide] | 0.06 | 5.4 | 0.04 | 6.8 | 20 | 10 | 6.4 | 6.8 | 13 | 11 | 15 | 5.6 | –
2 | C[C@@H]1[C@@H]2CN(C(=O)[C@H](C(C)(C)C)NC(=O)O[C@@H]3C[C@@H]4C[C@@H]4[C@H]3CCCCCc3nc4ccc(Cl)cc4nc3O2)[C@@H]1C(=O)N[C@]1(C(=O)NS(=O)(=O)C2CC2)C[C@H]1C(F)F [Example 79, (1aS,2aR,6S,9S,10S,11R,23aR,23bS)-6-tert-butyl-15-chloro-N-[(1R,2R)-1-[(cyclopropylsulfonyl)carbamoyl]-2-(difluoromethyl)cyclopropyl]-10-methyl-4,7-dioxo-1a,2,2a,4,5,6,7,10,11,19,20,21,22,23,23a,23b-hexadecahydro-1H,9H-8,11-methanocyclopropa[4′,5′]cyclopenta[1′,2′:18,19][1,10,3,6]dioxadiazacyclononadecino[11,12-b]quinoxaline-9-carboxamide] | 0.06 | 7 | 0.06 | 7.1 | 71 | 6.1 | 11 | 3 | 4.1 | 5.8 | 9.2 | 5.6 | –
3 | CC[C@@H]1[C@@H]2CN(C(=O)[C@H](C(C)(C)C)NC(=O)O[C@@H]3CCC[C@H]3CCCCCc3nc4ccc(OC)cc4nc3O2)[C@@H]1C(=O)N[C@]1(C(=O)NS(=O)(=O)C2CC2)C[C@H]1C(F)F [Example 5, (3aR,7S,10S,11S,12R,24aR)-7-tert-butyl-N-[(1R,2R)-1-[(cyclopropylsulfonyl)carbamoyl]-2-(difluoromethyl)cyclopropyl]-11-ethyl-16-methoxy-5,8-dioxo-1,2,3,3a,5,6,7,8,11,12,20,21,22,23,24,24a-hexadecahydro-10H-9,12-methanocyclopenta[18,19][1,10,3,6]dioxadiazacyclononadecino[11,12-b]quinoxaline-10-carboxamide] | 0.17 | 8.7 | 0.04 | 17 | 405 | 3.7 | 91 | 3.2 | 11 | 7.4 | – | 6.9 | –
4 | COc1ccc2nc3c(nc2c1)O[C@H]1CN(C(=O)[C@H](C2(C)CCCC2)NC(=O)O[C@@H]2C[C@H]2CCCCC3)[C@H](C(=O)N[C@]2(C(=O)NS(=O)(=O)C3(C)CC3)C[C@H]2C(F)F)[C@@H]1C [Example 38, (1aR,5S,8S,9S,10R,22aR)—N-[(1R,2R)-2-(difluoromethyl)-1-{[(1-methylcyclopropyl)sulfonyl]carbamoyl}cyclopropyl]-14-methoxy-9-methyl-5-(1-methylcyclopentyl)-3,6-dioxo-1,1a,3,4,5,6,9,10,18,19,20,21,22,22a-tetradecahydro-8H-7,10-methanocyclopropa[18,19][1,10,3,6]dioxadiazacyclononadecino[11,12-b]quinoxaline-8-carboxamide] | 0.7 | 7.8 | 0.03 | 8.4 | 151 | 4.5 | 25 | 2.8 | 5.4 | 4.2 | – | 5.5 | –
5 | (1aR,5S,8S,9S,10R,22aR)-5-tert-butyl-N-[(1R,2R)-2-(difluoromethyl)-1-{[(1-methylcyclopropyl)sulfonyl]carbamoyl}cyclopropyl]-8-fluoro-14-methoxy-9-methyl-3,6-dioxo-1,1a,3,4,5,6,9,10,18,19,20,21,22,22a-tetradecahydro-8H-7,10-methanocyclopropa[18,19][1,10,3,6]dioxadiazacyclononadecino[1,12-b]quinoxaline-8-carboxamide [Example 47] | 0.19 | – | 0.07 | – | – | – | – | – | – | – | – | – | EC50 [2]: 3.8 nM; EC50 ([4]; transient-transfected replicon genotype 1a R155K resistant variant, read-out: EC50 1A R155K): 6.1 nM; EC50 ([5]; stable replicon genotype 3a, Renilla luciferase): 58 nM; EC50 [6]: 5.4 nM; EC50 [8]: 2 nM; EC50 [9]: 12 nM; EC50 [10]: 3.6 nM; EC50 [11]: 17 nM; EC50 ([12]; stable replicon genotype 4a, Renilla luciferase): 4.2 nM
6 | CC[C@@H]1[C@@H]2CN(C(=O)[C@H](C(C)(C)C)NC(=O)O[C@@H]3[C@H]4CC[C@H](C4)[C@H]3CCCCCc3nc4ccc(OC)cc4nc3O2)[C@@H]1C(=O)N[C@]1(C(=O)NS(=O)(=O)C2CC2)C[C@H]1C(F)F [Example 13, (1R,4S,4aR,8S,11S,12S,13R,25aR)-8-tert-butyl-N-[(1R,2R)-1-[(cyclopropylsulfonyl)carbamoyl]-2-(difluoromethyl)cyclopropyl]-12-ethyl-17-methoxy-6,9-dioxo-2,3,4,4a,6,7,8,9,12,13,21,22,23,24,25,25a-hexadecahydro-1H,11H-1,4:10,13-dimethanoquinoxalino[2,3-k][1,10,3,6]benzodioxadiazacyclononadecine-11-carboxamide] | 0.18 | 13 | 0.04 | 59 | 685 | 8.6 | 209 | 3.1 | 26 | 9.5 | – | 11 | –

Source: US10335409B2 (priority 2012, dated 2019)
